According to patent US20260001928A1 (CORTERIA PHARMACEUTICALS, priority 2022, published 2026):
*1 amine or outer side, *2 acyl side, *3 side chain or, on linkers, in order; H or OH if unused. Where a SMILES comes first, the peptide text is derived from it. Side-chain parts run from the residue outwards. [ ]: non-standard residue; d: D form. The star is where a group is joined. C20 diacid = O=C(O)CCCCCCCCCCCCCCCCCCC(=O)*; γGlu = O=C(O)[C@H](CCC(=O)[*:2])N[*:1]; NMeI = CC[C@H](C)[C@H](NC)C(=O)O; Lauroyl = CCCCCCCCCCCC(=O)*; Api = NC1(C(=O)O)CCNCC1; Pentanoyl = CCCCC(=O)*; Aib = CC(C)(N)C(=O)O

How the values were obtained:
CFR1R receptor = target: T1, CFR1R receptor (Homo sapiens, UniProt P34998); assay: Activity at anti-target CFR1R receptor, cAMP assay in CRF1R-overexpression CHO-K1 cells; format: cell-based; details: 100% = Sauvagine at 100 nM
T1 construct: host or cells: CHO-K1 (clone 2)
T1 sequence (P34998 24-415): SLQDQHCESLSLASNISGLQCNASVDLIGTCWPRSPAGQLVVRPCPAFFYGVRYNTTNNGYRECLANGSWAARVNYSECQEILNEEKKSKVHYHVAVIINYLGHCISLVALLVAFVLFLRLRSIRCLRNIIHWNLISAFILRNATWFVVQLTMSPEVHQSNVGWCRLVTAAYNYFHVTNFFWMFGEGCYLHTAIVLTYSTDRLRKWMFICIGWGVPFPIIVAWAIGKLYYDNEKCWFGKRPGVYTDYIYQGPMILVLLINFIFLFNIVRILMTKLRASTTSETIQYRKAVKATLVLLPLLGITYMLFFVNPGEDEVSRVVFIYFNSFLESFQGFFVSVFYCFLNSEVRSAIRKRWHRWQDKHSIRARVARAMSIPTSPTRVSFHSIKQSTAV
Method in brief: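 Grow clone 2 to near confluence at 37° C. under 5% CO2 in F12 (Hams) with 10% FBS and G418, harvest, and freeze in 10% DMSO. Thaw and plate at 4000 cells/well. Then proceed per the TeloHAEC method, normalising to Sauvagine 100 nM as maximum.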

human CRF2a receptor = target: T2, human CRF2a receptor (Homo sapiens, UniProt Q13324); assay: Activity at human CRF2a receptor, cAMP functional assay in TeloHEAC cells; format: cell-based; details: TeloHEAC cells stably expressing human CRF2a receptor, relative to urocortin 2 (100 nM = 100%)
T2 construct: expressed in transfected cells; host or cells: TeloHEAC cells
T2 sequence (Q13324 1-411): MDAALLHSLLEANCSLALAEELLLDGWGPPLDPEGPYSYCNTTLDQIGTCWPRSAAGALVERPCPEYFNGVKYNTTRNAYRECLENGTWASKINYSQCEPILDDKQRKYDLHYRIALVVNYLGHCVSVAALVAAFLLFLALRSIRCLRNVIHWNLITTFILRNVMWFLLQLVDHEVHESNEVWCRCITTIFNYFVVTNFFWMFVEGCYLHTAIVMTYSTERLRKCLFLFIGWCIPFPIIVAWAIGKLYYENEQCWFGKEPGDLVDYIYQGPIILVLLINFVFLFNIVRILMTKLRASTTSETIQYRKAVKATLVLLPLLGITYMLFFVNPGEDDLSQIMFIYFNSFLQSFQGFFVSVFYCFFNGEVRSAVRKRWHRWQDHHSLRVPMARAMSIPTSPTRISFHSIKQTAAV
Method in brief: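 TeloHEAC cells stably expressing human CRF2a (10000 cells/well) were treated with 16-point 1:2 compound dilutions in HBSS/20 mM HEPES with IBMX for 30 min at 37° C. cAMP was read by HTRF (665/620 nm ratio). EC50 was the concentration giving 50% activation, with 100 nM urocortin 2 set as 100%.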

| Compound | Emax (% I) (CFR1R receptor) | EC50 (human CRF2a receptor) [nM] |
| --- | --- | --- |
| CC[C@H](C)[C@H](NC(C)=O)C(=O)N[C@H](C(=O)N[C@@H](CC(C)C)C(=O)N[C@@H](CO)C(=O)N[C@@H](CC(C)C)C(=O)N[C@@H](CC(=O)O)C(=O)N[C@@H](C(=O)N1CCC[C@H]1C(=O)N[C@H](C(=O)N[C@@H](CCCCN)C(=O)N[C@@H](CC(C)C)C(=O)N[C@@H](CCCCNC(=O)CC[C@H](NC(=O)CCCCCCCCCCCCCCCCCCC(=O)O)C(=O)O)C(=O)N[C@@H](CCCCN)C(=O)N[C@H](C(=O)N[C@@H](CC(C)C)C(=O)N[C@@H](CC(C)C)C(=O)N[C@@H](CCC(=O)O)C(=O)N[C@@H](CCC(N)=O)C(=O)N[C@@H](CCC(=O)O)C(=O)N[C@@H](C)C(=O)N[C@@H](CCC(N)=O)C(=O)N[C@@H](CCCCN)C(=O)N[C@@H](CCCCN)C(=O)N[C@@H](CCC(N)=O)C(=O)N[C@@H](CCCNC(=N)N)C(=O)N[C@@H](CCC(=O)O)C(=O)N[C@@H](CCC(N)=O)C(=O)N[C@@H](C)C(=O)N[C@@H](CCC(=O)O)C(=O)N[C@H](C(=O)N[C@@H](CC(N)=O)C(=O)NC(C)(C)C(=O)N[C@@H](CCC(N)=O)C(=O)N[C@H](C(=O)N[C@@H](CC(C)C)C(=O)N[C@@H](C)C(=O)N[C@@H](CCC(N)=O)C(=O)N[C@H](C(N)=O)C(C)C)[C@@H](C)CC)[C@@H](C)O)[C@@H](C)CC)[C@@H](C)CC)C(C)C)C(C)C [compound 211] (Ac-IVLSLD[dV]PIKLK([γGlu-C20 diacid])KILLEQEAQKKQREQAETN[Aib]QILAQV-NH2) | 73 | 0.15 |
| CCCCC(=O)N[C@H](C(=O)N[C@@H](CC(C)C)C(=O)N[C@@H](CO)C(=O)N[C@@H](CC(C)C)C(=O)N[C@@H](CC(=O)O)C(=O)N[C@@H](C(=O)N1CCC[C@H]1C(=O)N[C@H](C(=O)N[C@@H](CCCCN)C(=O)N[C@@H](CC(C)C)C(=O)N[C@@H](CCCCNC(=O)CC[C@H](NC(=O)CCCCCCCCCCCCCCCCCCC(=O)O)C(=O)O)C(=O)N[C@@H](CCCCN)C(=O)N[C@H](C(=O)N[C@@H](CC(C)C)C(=O)N[C@@H](CC(C)C)C(=O)N[C@@H](CCC(=O)O)C(=O)N[C@@H](CCC(N)=O)C(=O)N[C@@H](CCC(=O)O)C(=O)N[C@@H](C)C(=O)N[C@@H](CCC(N)=O)C(=O)N[C@@H](CCCCN)C(=O)N[C@@H](CCCCN)C(=O)N[C@@H](CCC(N)=O)C(=O)N[C@@H](CCCNC(=N)N)C(=O)N[C@@H](CCC(=O)O)C(=O)N[C@@H](CCC(N)=O)C(=O)N[C@@H](C)C(=O)N[C@@H](CCC(=O)O)C(=O)N[C@H](C(=O)N[C@@H](CC(N)=O)C(=O)NC(C)(C)C(=O)N[C@@H](CCC(N)=O)C(=O)N[C@H](C(=O)N[C@@H](CC(C)C)C(=O)N[C@@H](C)C(=O)N[C@@H](CCC(N)=O)C(=O)N[C@H](C(N)=O)C(C)C)[C@@H](C)CC)[C@@H](C)O)[C@@H](C)CC)[C@@H](C)CC)C(C)C)C(C)C [compound 221] (Pentanoyl-VLSLD[dV]PIKLK([γGlu-C20 diacid])KILLEQEAQKKQREQAETN[Aib]QILAQV-NH2) | 79 | 0.18 |

Continued, values first:

| Emax (% I) (CFR1R receptor) | EC50 (human CRF2a receptor) [nM] | Compound |
| --- | --- | --- |
| 63 | 0.15 | CC[C@H](C)[C@H](NC(C)=O)C(=O)N[C@H](C(=O)N[C@@H](CC(C)C)C(=O)N[C@@H](CO)C(=O)N[C@@H](CC(C)C)C(=O)N[C@@H](CC(=O)O)C(=O)N[C@@H](C(=O)N1CCC[C@H]1C(=O)N[C@H](C(=O)N[C@@H](CCCCN)C(=O)N[C@@H](CC(C)C)C(=O)N[C@@H](CCCCNC(=O)CC[C@H](NC(=O)CCCCCCCCCCCCCCCCCCC(=O)O)C(=O)O)C(=O)N[C@@H](CCCCN)C(=O)N[C@H](C(=O)N[C@@H](CC(C)C)C(=O)N[C@@H](CC(C)C)C(=O)N[C@@H](CCC(=O)O)C(=O)N[C@@H](CCC(N)=O)C(=O)N[C@@H](CCC(=O)O)C(=O)N[C@@H](CCCCN)C(=O)N[C@@H](CCC(N)=O)C(=O)N[C@@H](CCCCN)C(=O)NC(C)(C)C(=O)N[C@@H](CCC(N)=O)C(=O)N[C@@H](CCCNC(=N)N)C(=O)N[C@@H](CCC(=O)O)C(=O)N[C@@H](CCC(N)=O)C(=O)N[C@@H](C)C(=O)N[C@@H](CCC(=O)O)C(=O)N[C@H](C(=O)N[C@@H](CC(N)=O)C(=O)NC1(C(=O)N[C@@H](CCC(N)=O)C(=O)N[C@H](C(=O)N[C@@H](CC(C)C)C(=O)N[C@@H](C)C(=O)N[C@@H](CCC(N)=O)C(=O)N[C@H](C(N)=O)C(C)C)[C@@H](C)CC)CCNCC1)[C@@H](C)O)[C@@H](C)CC)[C@@H](C)CC)C(C)C)C(C)C [compound 208] (Ac-IVLSLD[dV]PIKLK([γGlu-C20 diacid])KILLEQEKQK[Aib]QREQAETN[Api]QILAQV-NH2) |
| 61 | 0.05 | CC[C@H](C)[C@H](NC)C(=O)N[C@H](C(=O)N[C@@H](CC(C)C)C(=O)N[C@@H](CO)C(=O)N[C@@H](CC(C)C)C(=O)N[C@@H](CC(=O)O)C(=O)N[C@@H](C(=O)N1CCC[C@H]1C(=O)N[C@H](C(=O)N[C@@H](CCCCN)C(=O)N[C@@H](CC(C)C)C(=O)N[C@@H](CCCCNC(=O)CC[C@H](NC(=O)CCCCCCCCCCCCCCCCCCC(=O)O)C(=O)O)C(=O)N[C@@H](CCCCN)C(=O)N[C@H](C(=O)N[C@@H](CC(C)C)C(=O)N[C@@H](CC(C)C)C(=O)N[C@@H](CCC(=O)O)C(=O)N[C@@H](CCC(N)=O)C(=O)N[C@@H](CCC(=O)O)C(=O)N[C@@H](C)C(=O)N[C@@H](CCC(N)=O)C(=O)N[C@@H](CCCCN)C(=O)N[C@@H](CCCCN)C(=O)N[C@@H](CCC(N)=O)C(=O)N[C@@H](CCCNC(=N)N)C(=O)N[C@@H](CCC(=O)O)C(=O)N[C@@H](CCC(N)=O)C(=O)N[C@@H](C)C(=O)N[C@@H](CCC(=O)O)C(=O)N[C@H](C(=O)N[C@@H](CC(N)=O)C(=O)NC(C)(C)C(=O)N[C@@H](CCC(N)=O)C(=O)N[C@H](C(=O)N[C@@H](CC(C)C)C(=O)N[C@@H](C)C(=O)N[C@@H](CCC(N)=O)C(=O)N[C@H](C(N)=O)C(C)C)[C@@H](C)CC)[C@@H](C)O)[C@@H](C)CC)[C@@H](C)CC)C(C)C)C(C)C [compound 216] (H-[NMeI]VLSLD[dV]PIKLK([γGlu-C20 diacid])KILLEQEAQKKQREQAETN[Aib]QILAQV-NH2) |
| 66 | 0.07 | CCCCCCCCCCCC(=O)N[C@H](C(=O)N[C@@H](CC(C)C)C(=O)N[C@@H](CO)C(=O)N[C@@H](CC(C)C)C(=O)N[C@@H](CC(=O)O)C(=O)N[C@@H](C(=O)N1CCC[C@H]1C(=O)N[C@H](C(=O)N[C@@H](CCCCN)C(=O)N[C@@H](CC(C)C)C(=O)N[C@@H](CCCCNC(=O)CC[C@H](NC(=O)CCCCCCCCCCCCCCCCCCC(=O)O)C(=O)O)C(=O)N[C@@H](CCCCN)C(=O)N[C@H](C(=O)N[C@@H](CC(C)C)C(=O)N[C@@H](CC(C)C)C(=O)N[C@@H](CCC(=O)O)C(=O)N[C@@H](CCC(N)=O)C(=O)N[C@@H](CCC(=O)O)C(=O)N[C@@H](CCCCN)C(=O)N[C@@H](CCC(N)=O)C(=O)N[C@@H](CCCCN)C(=O)N[C@@H](CCCCN)C(=O)N[C@@H](CCC(N)=O)C(=O)N[C@@H](CCCNC(=N)N)C(=O)N[C@@H](CCC(=O)O)C(=O)N[C@@H](CCC(N)=O)C(=O)N[C@@H](C)C(=O)N[C@@H](CCC(=O)O)C(=O)N[C@H](C(=O)N[C@@H](CC(N)=O)C(=O)NC(C)(C)C(=O)N[C@@H](CCC(N)=O)C(=O)N[C@H](C(=O)N[C@@H](CC(C)C)C(=O)N[C@@H](C)C(=O)N[C@@H](CCC(N)=O)C(=O)N[C@H](C(N)=O)C(C)C)[C@@H](C)CC)[C@@H](C)O)[C@@H](C)CC)[C@@H](C)CC)C(C)C)C(C)C [compound 224] (Lauroyl-VLSLD[dV]PIKLK([γGlu-C20 diacid])KILLEQEKQKKQREQAETN[Aib]QILAQV-NH2) |
